Results taken from paper PMC12345172, “Uptake of fucosylated type I human milk oligosaccharide blocks by Bifidobacterium longum subsp. infantis” (mBio, 2025).
Where two headings read alike, the source gives them in different places.

Experiments:
[1] = molecular target: T1, Blon_0883 (BiGFL-BP) (Bifidobacterium longum, UniProt A0AAX1LHV4); parameters: SPR (Biacore T100), immobilized Blon_0883 on CM5 chip, 25 °C, pH 6.5; kinetic and steady-state fits; settings: binder
T1 construct: gene msmE_4; mature peptide, amino acids 24-460, signal peptide removed; N-terminal TEV-cleavable His tag cut; E. coli BL21(DE3)
T1 sequence (A0AAX1LHV4 24-445): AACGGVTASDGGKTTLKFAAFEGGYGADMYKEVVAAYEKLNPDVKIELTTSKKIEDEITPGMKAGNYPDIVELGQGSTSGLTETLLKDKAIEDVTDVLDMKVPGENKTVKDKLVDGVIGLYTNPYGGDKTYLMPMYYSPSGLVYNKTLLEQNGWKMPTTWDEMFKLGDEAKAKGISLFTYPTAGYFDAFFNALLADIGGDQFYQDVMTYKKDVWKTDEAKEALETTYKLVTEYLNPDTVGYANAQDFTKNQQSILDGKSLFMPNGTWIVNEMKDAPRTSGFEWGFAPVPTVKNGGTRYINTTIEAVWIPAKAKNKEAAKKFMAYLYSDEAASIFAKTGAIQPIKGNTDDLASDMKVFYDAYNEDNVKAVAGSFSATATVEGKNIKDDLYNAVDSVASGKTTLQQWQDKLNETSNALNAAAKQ
Experimental: (§1) Affinity of Blon_0883 to oligosaccharides was also determined using a Biacore T100 (GE Healthcare). The protein was diluted into 10 mM sodium acetate (pH 4.2) to 2.0 µM and immobilized on a CM5 sensor chip using random amine coupling kit (GE Healthcare) to a density of 3,077 response units (RU) and the sensograms were recorded at 25°C in the same buffer used for the ITC (including 150 mM NaCl and 0.005% P20 surfactant) and analyzed as described ([24]). Experiments were performed in independent duplicates in the range 3.42–2,500 nM for LNB, GNB, Lewis A triose and Blood group H antigen triose. Binding was also tested using 0.1 µM–100 mM Lac, Gal, 3FL, 3SL, DFL LNT, and di-N-acetyl-lactosamine. The mature peptide of Blon_0883 was produced and purified to electrophoretic homogeneity. The binding affinity and thermodynamics of the transport protein were analyzed using isothermal titration calorimetry (ITC) and surface plasmon resonance (SPR) (Fig. 1; Fig. S1; Table S1). Among the tested ligands, the highest affinities were measured toward LNB and GNB. The binding of both ligands was driven by favorable enthalpy, similar to other saccharide-specific SBP ([21]) (Table 1). The Lewis a (Le^a) and blood group H type 1 antigen (H1) trisaccharides were both bound with about four-fold lower affinity than the preferred LNB ligand. […] Panels A through D depict representative binding isotherms based on technical triplicates. The circles are blank and reference-corrected binding levels, and the solid lines are the fits of a one binding site model to the steady state data. Panels E and F depict the blank and reference-corrected sensograms in gray, and the green lines are the global fits of a kinetic one site binding model to the binding sensograms.

[2] = molecular target: T1, Blon_0883 (BiGFL-BP); test: biochemical; parameters: SPR (Biacore T100), immobilized Blon_0883 on CM5 chip, 25 °C, pH 6.5; kinetic and steady-state fits; settings: SPR kinetic global fit; for kon: read-out: kon (×10^6 M^-1s^-1)
Experimental: as §1

[3] = molecular target: T1, Blon_0883 (BiGFL-BP); test: surface plasmon resonance, steady state; assay type: binding; settings: 25 °C, pH 6.5, 10 mM sodium phosphate, 150 mM NaCl, 0.005% P20; protein amine-coupled to CM5 chip
Excerpt: surface plasmon resonance, steady state on Blon_0883 (BiGFL-BP)

[4] = molecular target: T1, Blon_0883 (BiGFL-BP); test: isothermal titration calorimetry; assay type: binding; settings: 25 °C, pH 6.5, 10 mM sodium phosphate; one-site model; free protein in solution
Excerpt: isothermal titration calorimetry on Blon_0883 (BiGFL-BP)

[5] = SPR kinetic global fit, read-out: Kd Kinetics

Row | Kd [1, 5] | koff [2] | kon [2] | Kd [3] | Kd ([1]; SPR steady-state fit) | Kd [4] | Compound
1 | 37 nM | 0.17 ± 0.002 s⁻¹ | 4.8e+06 ± 60000 M⁻¹ s⁻¹ | 158 ± 9 nM |  |  | CC(=O)N[C@H]1C(O)O[C@H](CO)[C@@H](O)[C@@H]1O[C@@H]1O[C@H](CO)[C@H](O)[C@H](O)[C@H]1O[C@@H]1O[C@@H](C)[C@@H](O)[C@@H](O)[C@@H]1O (stereo partly drawn) [H1]
2 | 11 nM | 0.16 ± 0.003 s⁻¹ | 1.46e+07 ± 30000 M⁻¹ s⁻¹ |  | 32.5 ± 3.2 nM | 68.5 nM | CC(=O)N[C@H]1C(O)O[C@H](CO)[C@@H](O)[C@@H]1O[C@@H]1O[C@H](CO)[C@H](O)[C@H](O)[C@H]1O (stereo partly drawn) [LNB, Galβ1,3GlcNAc]
3 | 49 nM | 0.14 ± 0.0005 s⁻¹ | 3e+06 ± 10000 M⁻¹ s⁻¹ | 146 ± 12 nM |  |  | CC(=O)N[C@H]1C(O)O[C@H](CO)[C@@H](O[C@@H]2O[C@@H](C)[C@@H](O)[C@@H](O)[C@@H]2O)[C@@H]1O[C@@H]1O[C@H](CO)[C@H](O)[C@H](O)[C@H]1O (stereo partly drawn) [Le^a]
4 | 42 nM | 0.04 ± 0.003 s⁻¹ | 850000 ± 4000 M⁻¹ s⁻¹ |  | 62 ± 4 nM | 169 nM | CC(=O)N[C@H]1C(O)O[C@H](CO)[C@H](O)[C@@H]1O[C@@H]1O[C@H](CO)[C@H](O)[C@H](O)[C@H]1O (stereo partly drawn) [GNB, Galβ1,3GalNAc]
